From PMC9515468, “Tetracycline-grafted mPEG-PLGA micelles for bone-targeting and osteoporotic improvement” (Frontiers in Pharmacology, 2022)

Tests used:
[1] = tested on: ovariectomized rats; assay: Osteoporotic study in ovariectomized rats (femur micro-CT, BMD); assay type: in vivo, SD rats; details: 0.5 mg/kg/2 days intravenous; for BMD (bone mineral density) / BV/TV / SMI (structure model index) / Tb.N / Tb.Sp / Tb.Th: femur of ovariectomized rats, n = 3; for increase of femur BMD compared to the OVX group: ovariectomized rats, treatment for 8 weeks
Procedure: Female SD rats were adopted for the osteoporotic study. […] All SD rats were anesthetized and bilaterally ovariectomized except those in the SHAM group, which underwent a sham operation. […] All SD rats were sacrificed, and their left femurs were collected. Detection of BMD was performed with a dual energy X-ray absorptiometric machine ([…] Microtomograph, Bruker, Belgium) ([Zhang et al., 2020]).

[2] = AS release in vitro, dialysis bag method; assay type: physicochemical; details: in 48 h, PBS pH 7.4 with 0.5% Tween 80, 37 °C
Procedure: The experiment was conducted with an oscillating machine (ZRS-8G model, Tianjin Univ. Radio Factory, China) at a speed of 100 rpm and 37 °C. Withdrawal of dissolution medium for analysis was accordingly performed, while the same volume of fresh medium was added at preset time periods. Measurement of AS concentration for the calculation of the cumulative release ratio with HPLC was carried out. The release curve was drawn with the abscissa as time and the cumulative release ratio as the ordinate ([Weng et al., 2019]).

[3] = Hydroxyapatite-targeting ability (binding to bone mineral); details: 80 mg hydroxyapatite, 37°C, within 4 h
Procedure: The precipitates were dissolved with 10 ml of methanol prior to 5 min of sonication and 10 min of centrifugation at 12,000 rpm. Filtration of the supernatant was accomplished with a filtering membrane (0.22 μm). The concentration of AS in the supernatant was detected by HPLC. The adsorption ability of bone targets was calculated by the following equation ([Yuan et al., 2020]): A%=Ia/I0×100% (5) where A% represents the adsorption ability of bone targets. The Ia denotes the amount of AS absorbed by hydroxyapatite. The I0 denotes the weight of AS in initial bone targets.

[4] = Pharmacokinetic parameters in the plasma; assay type: in vivo; details: SD rats, 10 mg/kg, tail vein, n = 6
Procedure: In-house in vitro analysis of AS was performed with a Shimadzu high performance liquid chromatography (HPLC) machine ([…], Shimadzu-Japan) equipped with an ultraviolet detector and a Purospher® RP18 column (5 μm, 4.6 × 250 mm, Merck KGaA-Germany). […] For in vivo detection, the internal standard (IS) was a baicalein (20 μg/ml) solution, wherein ethyl acetate was employed to extract AS and IS from plasma ([Zhen et al., 2020]). […] Sampling of blood from the retro-orbital veins of rats at preset time intervals was performed after they had received the aforementioned dosage forms. To obtain serum, we stored the sampled blood for 30 min at 37°C prior to centrifugation at 3,700 rpm for 10 min. The following procedure has been depicted in Section 2.7. Based on observed values, we computed Cmax as the maximum AS concentration in plasma and Tmax as the time to attain Cmax. […] Estimation of oral relative biological availability (RBA) was carried out as follows ([Zhu et al., 2021]): […]

Q: What does the source list for `CC(C)(O)[C@@H]1CC[C@](C)([C@H]2[C@@H](O)C[C@@]3(C)[C@@H]4C[C@H](O[C@@H]5O[C@H](CO)[C@@H](O)[C@H](O)[C@H]5O)[C@H]5C(C)(C)[C@@H](O[C@@H]6OC[C@@H](O)[C@H](O)[C@H]6O)CC[C@@]56C[C@@]46CC[C@]23C)O1` [AS, Astragaloside IV]?
A: effect on osteoporosis in ovariectomized rats vs OVX group ([1]; p < 0.05): certain mitigative effect; BMD (bone mineral density) [1]: 0.064 ± 0.003; BV/TV [1]: 9.951 ± 0.100%; SMI (structure model index) [1]: 1.847 ± 0.032; Tb.N [1]: 1.441 ± 0.026; Tb.Sp [1]: 0.60 ± 0.018; Tb.Th [1]: 0.076 ± 0.002 mm; increase of femur BMD compared to the OVX group [1]: 12.9%; cumulative release rate [2]: 79.05%; adsorption ability to hydroxyapatite (A%) ([3]; containing 1 mg AS): 26.98%; adsorption ability to hydroxyapatite (A%) ([3]; containing 5 mg AS): 28.83%; AUCt [4]: 12912 ng·h/mL; Cmax [4]: 14320 ng/mL; MRT [4]: 82.14 min; Tmax [4]: 4.98 min; t1/2 [4]: 33.5 min

Q: What does the source list for `C[C@]12CC[C@@H]3c4ccc(O)cc4CC[C@H]3[C@@H]1CC[C@@H]2O` [ES, estradiol]?
A: BMD (bone mineral density) [1]: 0.093 ± 0.003; BV/TV [1]: 12.91 ± 0.703%; SMI (structure model index) [1]: 1.793 ± 0.052; Tb.N [1]: 1.943 ± 0.063; Tb.Sp [1]: 0.48 ± 0.016; Tb.Th [1]: 0.074 ± 0.002 mm; increase of femur BMD compared to the OVX group [1]: 62.5%
